Square brackets hold non-standard residues; d marks the D form. Primed or numbered codes have the meaning given here. Side chains are listed from the residue outwards. oligo‑glycol (n:2) = oligo-glycol tether (n=2) linking D-Lys(N3) to alkynyl rhamnose by click reaction; oligo‑glycol (n:5) = oligo-glycol tether (n=5) linking D-Lys(N3) to alkynyl rhamnose by click reaction; dLys(N3)′ = its azide, alkyne or alkene has reacted where a group follows in round brackets; rhamnose derivative = not defined here; click linkage = not defined here; pGlu = O=C1CC[C@@H](C(=O)O)N1
Experiments:
[1] = tested on: MCF7 cells (LHRH-R positive); test: Flow cytometry, recruitment of anti-Rha antibody on MCF7 cells; assay type: cell-based; conditions: 250 nM, anti-Rha antibody 20 μg/mL, FIG. 7
Protocol: (§1) Commercialized MCF7 cells (LHRH-R positive) and UCI-107(LHRH-R negative) were grown in DMEM supplemented with 10% FBS, 1% penicillin-streptomycin. All cells were cultured at 37° C. in a 5% CO2 humidified atmosphere.
(1) Cells were cultured and detached with trypsin-EDTA and then resuspended to 1.0×10^5 cells/mL. Forty thousand of these cells were added into sterile centrifuge tubes. (2) LHRH, LHRH-Rha, LHRH-TEG-Rha and LHRH-HEG-Rha compounds were added at a final concentration of 250 nM. For the blank group (Negative), the corresponding volume of PBS was added. And anti-Rha antibody at a final concentration of 20 μg/mL in all groups. These cells were incubated on ice for 60 min, washed with flow cytometry buffer. And fluorescent secondary antibody was immediately added in all groups. These cells were incubated on ice for 30 min, (3) washed with flow cytometry buffer and then analyzed using an Accuri C6 flow cytometer.

[2] = tested on: MCF7 cells (LHRH-R positive); test: ADCC experiment on MCF7 cells; assay type: cell-based; conditions: MCF-7 cells, 250 nM, anti-Rha antibody, PBMC, LDH method, FIG. 7
Protocol: as §1
(1) MCF7 or UCI-107 cells were seeded in 96-well plates at a concentration of 10,000 cells/well and then treated with LHRH, LHRH-Rha, LHRH-TEG-Rha and LHRH-HEG-Rha at a final concentration of 250 nM and a certain concentration of anti-Rha antibody. (2) Following the incubation period, freshly extracted PBMC cells were added at a certain effective target ratio, (3) and the supernatant was treated by centrifugation for minutes, using LDH method to measure the cytotoxicity.

[3] = tested on: MCF7 cells (LHRH-R positive); test: CDC experiment on MCF7 cells; assay type: cell-based; conditions: MCF-7 cells, 250 nM, anti-Rha antibody, 10% rabbit complement, cck8 kit, FIG. 7
Protocol: as §1
(1) MCF7 cells or UCI-107 were seeded in 96-well plates at a concentration of 5000 cells/well and then treated with LHRH, LHRH-Rha, LHRH-TEG-Rha and LHRH-HEG-Rha at a final concentration of 250 nM and a certain concentration of anti-Rha antibody. Following the incubation at 37° C. for 2 h, next, diluted rabbit complement at a final concentration of 10% were added to each well. Following the incubation at 37° C. for 1 h, the results detected using cck8 kit.

[4] = tested on: HEK-293 (high expression of integrin αvβ3); test: Flow cytometry on HEK-293 cells; assay type: cell-based; conditions: FIG. 11
Protocol: (§2) Cell assay implementation: cell culture: commercial cells HEK-293 (high expression of integrin αvβ3), SKOV-3 (high expression of integrin αvβ3, αvβ 5), and HT-29 (high expression of integrin αvβ5) was cultured in DMEM complete medium. All cell culture conditions were 37° C., 5% CO2. Flow cytometry assay: (1) The cells were digested with trypsin, resuspended in flow medium diluted to 1×10^5 cells. 400 μL of cells (40,000 cells) were added to a sterile EP tube. (2) RGD analogues (SEQ ID NO:9), RGD-DNP and RGD-linker-DNP compounds were added […], incubate on ice for 1 h. Then the cells were washed and incubated with fluorescent secondary antibody for 0.5 h. (3) the cells were thoroughly washed gently with a flow buffer, resuspended, and analyzed by instruments.

[5] = tested on: SKOV-3 (high expression of integrin αvβ3, αvβ 5); test: Flow cytometry on SKOV-3 cells; assay type: cell-based; conditions: FIG. 11
Protocol: as §2

[6] = tested on: HT-29 (high expression of integrin αvβ5); test: Flow cytometry on HT-29 cells; assay type: cell-based; conditions: FIG. 11
Protocol: as §2

HEK-293 cells [7] = test: ADCC assay on HEK-293 cells; assay type: cell-based; conditions: 250 nM, anti-DNP antibody, PBMC, LDH method, FIG. 11
Protocol: ADCC assay implementation: (1) HEK-293, SKOV-3, HT-29 cells were seeded in 96-well plates at a concentration of 10,000 cells/well. After the cells were fully attached, added with RGD analogues (SEQ ID NO:9), RGD-DNP and RGD-linker-DNP compounds at a final concentration of 250 nM and immediately added a certain concentration of anti-DNP antibody. (2) After incubation for a period of time, freshly extracted PBMC cells were added at a certain effect target ratio for a certain period of time. (3) The supernatant was removed by centrifugation, and cytotoxicity was measured by the LDH method.

HEK-293 cells [8] = test: CDC assay on HEK-293 cells; assay type: cell-based; conditions: 250 nM, anti-DNP antibody, 10% complement, cck8 method, FIG. 11
Protocol: CDC assay implementation: (1) HEK-293, SKOV-3, HT-29 cells were seeded in 96-well plates at a concentration of 5,000 cells/well. After the cells were fully attached, added with RGD analogues (SEQ ID NO:9), RGD-DNP and RGD-linker-DNP compounds at a final concentration of 250 nM and added a certain concentration of anti-DNP antibody at the same time. After 2 hours of incubation at 37° C., a final concentration of 10% of the complement solution was added and incubated for 1 hour at 37° C. After the incubation, the cell viability was measured by the cck8 method.

SKBR3 cells [9] = test: ADCC assay on SKBR3 cells; assay type: cell-based; conditions: rabbit anti-Rha IgG, human peripheral blood mononuclear cells, LDH kit, FIG. 6(A)
Protocol: (§3) SKBR3 (HER2 positive) and MCF7 cells (HER2 negative) were grown in DMEM supplemented with 10% FBS, 1% penicillin-streptomycin. All cells were cultured at 37° C. in a 5% CO2 humidified atmosphere.
(1) SKBR3 cells were seeded in 96-well plates at a concentration of 10,000 cells/well and then treated with C7b and Rha conjugated C7b in the presence of rabbit anti-Rha IgG antibodies. (2) Next, freshly isolated human peripheral blood mononuclear cells were added to each well. (3) Following the incubation period, the supernatant was transferred onto a new black 96-well and detected using LDH kit.

SKBR3 cells [10] = test: CDC assay on SKBR3 cells; assay type: cell-based; conditions: 20% normal human serum, cck8 kit, FIG. 6(B)
Protocol: as §3
(1) SKBR3 cells were seeded in 96-well plates at a concentration of 5000 cells/well and (2) then treated with C7b and Rhaconjugated C7b in the presence of 20% normal human serum (the source of anti-Rha IgG and complement). (3) Following the incubation period, the results detected using cck8 kit.

HER2 = target: T1, HER2 (UniProt P04626 23-1255, limits assumed); test: flow cytometry on SKBR3 cells at 250 nM, detected with Alexa 488 rabbit anti-Rha IgG
T1 construct: whole, on cells; also called human epidermal growth factor receptor 2; HER2 (on SKBR3 cells)

LHRH-R = target: T2, LHRH-R (UniProt P30968 1-328); test: cell-based or functional assay
T2 sequence (looked up): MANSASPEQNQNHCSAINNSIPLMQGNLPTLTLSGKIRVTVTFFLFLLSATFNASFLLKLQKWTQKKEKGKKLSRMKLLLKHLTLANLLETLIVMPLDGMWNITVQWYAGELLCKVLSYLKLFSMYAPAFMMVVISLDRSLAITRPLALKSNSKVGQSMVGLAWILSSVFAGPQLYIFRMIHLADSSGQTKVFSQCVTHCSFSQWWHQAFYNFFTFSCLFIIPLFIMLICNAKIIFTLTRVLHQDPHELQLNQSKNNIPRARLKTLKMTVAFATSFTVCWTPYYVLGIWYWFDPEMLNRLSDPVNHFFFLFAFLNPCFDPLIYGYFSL

LHRH-HEG-Rha: [6-D-Lys(N3)]-LHRH peptide click-coupled to rhamnose derivative, oligo-glycol linker n=5 ([pGlu]HWSY[dLys(N3)′]([click linkage-oligo‑glycol n:5-rhamnose derivative])LRPG-NH2; reading uncertain; also: rhamnose derivative attached via click (triazole) to D-Lys6, oligo-glycol n=5, structure in drawing)
recruitment of anti-Rha antibodies to MCF-7 tumor cells [1]: could recruit anti-Rha antibodies
ADCC-mediated killing rate [2]: about 33%
CDC-mediated killing rate [3]: about 26%

LHRH-Rha: [6-D-Lys(N3)]-LHRH peptide click-coupled to rhamnose derivative, oligo-glycol linker n=0 ([pGlu]HWSYKLRPG-NH2; not fully specified (residue 6); printed as Glp-His-Trp-Ser-Tyr-D-Lys(N3)-Leu-Arg-Pro-Gly-NH2; also: rhamnose derivative attached via click (triazole) to D-Lys6, oligo-glycol n=0, structure in drawing)
recruitment of anti-Rha antibodies to MCF-7 tumor cells [1]: could recruit anti-Rha antibodies
ADCC-mediated killing rate [2]: about 33%
CDC-mediated killing rate [3]: about 26%

LHRH-TEG-Rha: [6-D-Lys(N3)]-LHRH peptide click-coupled to rhamnose derivative, oligo-glycol linker n=2 ([pGlu]HWSY[dLys(N3)′]([click linkage-oligo‑glycol n:2-rhamnose derivative])LRPG-NH2; reading uncertain; also: rhamnose derivative attached via click (triazole) to D-Lys6, oligo-glycol n=2, structure in drawing)
recruitment of anti-Rha antibodies to MCF-7 tumor cells [1]: could recruit anti-Rha antibodies
ADCC-mediated killing rate [2]: about 33%
CDC-mediated killing rate [3]: about 26%

RGD-DNP: DNP coupled to cyclic RGD analogue Cyclo-(DFKRG), short connecting arm (cyclo(DFKRG); also: DNP conjugated (site only in drawing))
binding to cells [4]: can bind
binding to cells [5]: can bind
binding to cells [6]: can bind
ADCC kill rate (HEK-293 cells [7]): 18%
CDC kill rate (HEK-293 cells [8]): 21%

RGD-linker-DNP: DNP coupled through a linker to cyclic RGD analogue Cyclo-(DFKRG), long connecting arm (cyclo(DFKRG); also: DNP conjugated via long linker (site only in drawing))
binding to cells [4]: can bind
binding to cells [5]: can bind
binding to cells [6]: can bind
ADCC kill rate (HEK-293 cells [7]): 38%
CDC kill rate (HEK-293 cells [8]): 42%

B1: C7b-triEGRha: nanobody C7b linked by SrtA to small molecule GGG-triEGRha (conjugate)
VHH: MQVQLVQSGGGLVQAGGSLRLSCAASGRTFSSYAMAWFRQAPGKEREFVAAISWSGANIYVADSVKGRFTISRDNAKDTVYLQMNSLKPEDTAVYYCAVKLGFAPVEERQYDYWGQGTQVTVSSLPETGG
ADCC efficacy (SKBR3 cells [9]): 32%
CDC efficacy (SKBR3 cells [10]): 36%

B2: C7b-hexEGRha: nanobody C7b linked by SrtA to small molecule GGG-hexEGRha (conjugate)
VHH: B1 VHH
ADCC efficacy (SKBR3 cells [9]): 43%
CDC efficacy (SKBR3 cells [10]): 47%

B3: C7b-triEGRha (VHH)
VHH: QVQLVQSGGGLVQAGGSLRLSCAASGRTFSSYAMAWFRQAPGKEREFVAAISWSGANIYVADSVKGRFTISRDNAKDTVYLQMNSLKPEDTAVYYCAVKLGFAPVEERQYDYWGQGTQVTVSS
modifications: C-terminal LPETGG motif ligated by sortase A (enhanced SrtA) to GGG-triEGRha (triethylene glycol-rhamnose)
notes: also called Rha conjugated C7b
binding result (HER2): binds

B4: C7b-hexEGRha (VHH)
VHH: B3 VHH
modifications: C-terminal LPETGG motif ligated by sortase A (enhanced SrtA) to GGG-hexEGRha (hexaethylene glycol-rhamnose)
notes: as for B3
binding result (HER2): binds

[pGlu]HWSY[dLys(N3)′]([oligo‑glycol (n:2)-rhamnose])LRPG-NH2 [LHRH-TEG-Rha]
ADCC-mediated killing rate (LHRH-R): ~33%
CDC-mediated killing rate (LHRH-R): ~26%

[pGlu]HWSY[dLys(N3)′]([oligo‑glycol (n:5)-rhamnose])LRPG-NH2 [LHRH-HEG-Rha]
ADCC-mediated killing rate (LHRH-R): ~33%
CDC-mediated killing rate (LHRH-R): ~26%

[pGlu]HWSY[dLys(N3)′](rhamnose)LRPG-NH2 [LHRH-Rha]
ADCC-mediated killing rate (LHRH-R): ~33%
CDC-mediated killing rate (LHRH-R): ~26%
